{"source": "patent US20050101623A1", "about": "(Pharmacia Corporation, priority 2003, published 2005)", "key": {"[1]": {"biological_target": "Recombinant MAPKAPK2 (MK-2) (Homo sapiens, UniProt P49137)", "sequence (P49137 whole entry, species assumed)": "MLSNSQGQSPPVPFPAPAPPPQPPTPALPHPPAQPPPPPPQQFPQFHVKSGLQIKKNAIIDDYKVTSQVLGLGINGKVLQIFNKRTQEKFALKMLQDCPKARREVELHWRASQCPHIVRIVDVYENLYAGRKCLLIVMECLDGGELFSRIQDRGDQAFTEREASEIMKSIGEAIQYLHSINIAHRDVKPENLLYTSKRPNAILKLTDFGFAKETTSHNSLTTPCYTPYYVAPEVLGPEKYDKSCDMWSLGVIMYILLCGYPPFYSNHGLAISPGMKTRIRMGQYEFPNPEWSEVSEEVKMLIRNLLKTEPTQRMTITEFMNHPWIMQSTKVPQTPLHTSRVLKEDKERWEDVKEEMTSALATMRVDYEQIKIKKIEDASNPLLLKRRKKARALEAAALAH", "test": "Determination of MK-2 IC50 (phosphorylation of HSP-peptide, anion exchange resin capture assay)", "format": "biochemical"}, "endotoxin-induced shock": {"test_system": "endotoxin-induced shock", "conditions": "murine model of endotoxin-induced shock; cited from earlier work"}, "[2]": {"test_system": "collagen-induced arthritis", "conditions": "mouse; cited from earlier work"}, "adjuvant arthritis": {"test_system": "adjuvant arthritis", "conditions": "rat; cited from earlier work"}, "MK-2": {"test_system": "MK-2", "conditions": "cited from earlier work"}, "TNFα release, U937 cells": {"test_system": "TNFα release, U937 cells", "test": "U937 Cell TNFα Release Assay (LPS, ELISA)", "format": "cell-based, human", "conditions": "additional values are replicate IC50 experiments", "protocol": "U937 Cell TNFα Release Assay\nDifferentiation of U937 to monocytic/macrophage-like cells is induced by the addition of phorbol12-myristate 13-acetate (Sigma) at final concentration of 20 ng/ml to a culture of U937 cells at ˜0.5 million cells/ml and incubated for 24 hrs. The cells are centrifuged, washed with PBS and resuspended in fresh media without PMA and incubated for 24 hrs. Cells adherent to the culture flask are harvested by scraping, centrifugation, and resuspended in fresh media to 2 million cells/ml, and 0.2 ml is aliquoted to each of 96 wells in flat-bottom plate. Cells are then incubated for an additional 24 hrs to allow for recovery. The media is removed from the cells, and 0.1 ml of fresh media is added per well. 0.05 ml of serially diluted compound or control vehicle (Media with DMSO) is added to the cells. […] Cells are incubated at 37° C. for 4 hrs. After 4 hrs incubation, supernatants are harvest and assayed by ELISA for the presence of TNFα.\nCoating solution was aspirated the following day and wells were blocked with 1 mg/ml gelatin in PBS (plus 1× thimerasol) for 2 days at 4° C. Prior to using, wells were washed 3× with wash buffer (PBS with 0.05% Tween). Cultured media samples were diluted in EIA buffer (5 mg/ml bovine γ-globulin, 1 mg/ml gelatin, 1 ml/l Tween-20, 1 mg/ml thimerasol in PBS), added to wells (0.1 ml/well) in triplicate and allowed to incubate for 1.5 hr at 37° C. in a humidified chamber. […] TNF levels were quantitated from a recombinant human TNFα (R&D Systems #210-TA-010) standard curve using a quadratic parameter fit generated by SoftMaxPRO software. ELISA sensitivity was approximately 30 pg TNF/ml. IC50 values for compounds were generated using BioAssay Solver."}, "[3]": {"conditions": "MK-2 Avg. IC50, additional values are replicate IC50 experiments"}, "[4]": {"conditions": "additional values are replicate IC50 experiments, read-out: MK-2 Avg. IC50"}, "[5]": {"conditions": "Homo sapiens, U-937, 4 h, LPS 100 ng/ml, 4 hrs, differentiated U937 cells, read-out: TNF Release Assay Avg. IC50"}, "[6]": {"conditions": "Homo sapiens, U-937, 4 h, read-out: TNF Release Assay Avg. IC50, LPS 100 ng/ml, 4 hrs, differentiated U937 cells"}}, "note": "Several values for one entry are separate records, joined by “and”; a condition that tells them apart may be missing. Equal values may be shown once. Where a name gives a salt, the structure may show the parent alone. Read-outs that look alike come from different tables or passages of the source."}
{"smiles": "COCCOC(=O)C1c2[nH]c3ccc(O)cc3c2C2CCN1C2", "note": "(centres unmarked) [trifluoroacetate]", "values": [{"measurement": "IC50", "setting": "[1]; [3]", "result": 6.88, "unit": "µM"}]}
{"smiles": "COc1ccc2[nH]c3c(c2c1)C1CCN(C1)C3C(=O)OCC1CCCCC1", "note": "(centres unmarked) [No. 15, hydrochloride]", "values": [{"measurement": "IC50", "setting": "[1]; [4]", "result": 38.5, "unit": "µM"}]}
{"smiles": "COc1ccc2[nH]c3c(c2c1)C1CCN(C1)C3C(=O)NCc1ccccc1", "note": "(centres unmarked) [compound 45, N-benzyl-7-methoxy-3,4,5,10-tetrahydro-1H-2,5-methanoazepino[3,4-b]indole-1-carboxamide hydrochloride]", "values": [{"measurement": "IC50", "setting": "[1]; [3]", "result": "> 200", "unit": "µM"}]}
{"smiles": "C[S+]([O-])c1ccc(-c2nc(-c3ccncc3)c(-c3ccc(F)cc3)[nH]2)cc1", "note": "(centres unmarked) [SB203580]", "values": [{"measurement": "mortality", "setting": "endotoxin-induced shock", "result": "reduce mortality"}, {"measurement": "development of collagen-induced arthritis", "setting": "[2]", "result": "inhibit the development"}, {"measurement": "development of adjuvant arthritis", "setting": "adjuvant arthritis", "result": "inhibit the development"}, {"measurement": "inhibition of activation of MK-2", "setting": "MK-2", "result": "inhibit activation"}]}
{"smiles": "COc1ccc2[nH]c3c(c2c1)C1CCN(C1)C3C(=O)OC1CCCCC1", "note": "(centres unmarked) [trifluoroacetate]", "values": [{"measurement": "IC50", "setting": "[1]; [3]", "result": 45.2, "unit": "µM"}, {"measurement": "IC50", "setting": "TNFα release, U937 cells; read-out: TNF Release Assay Avg. IC50, LPS 100 ng/ml, 4 hrs, differentiated U937 cells, listed as 37, trifluoroacetate", "result": 50.4, "unit": "µM"}]}
{"smiles": "COc1ccc2[nH]c3c(c2c1)C1CCN(C1)C3c1ccc[nH]1", "note": "(centres unmarked) [compound 50, 7-methoxy-1-(1H-pyrrol-2-yl)-3,4,5,10-tetrahydro-1H-2,5-methanoazepino[3,4-b]indole trifluoroacetate]", "values": [{"measurement": "IC50", "setting": "[1]; [4]", "result": "> 200", "unit": "µM"}]}
{"smiles": "COc1ccc2[nH]c3c(c2c1)C1CCN(C1)C3C(=O)OCCSC", "note": "(centres unmarked)", "values": [{"measurement": "IC50", "setting": "[1]; [3]", "result": 4.4, "unit": "µM"}]}
{"smiles": "COc1ccc2[nH]c3c(c2c1)C1CCN(C1)C3C(=O)N(C)OC", "note": "(centres unmarked) [trifluoroacetate]", "values": [{"measurement": "IC50", "setting": "[1]; [3]", "result": "91 µM and 98.2 µM"}]}
{"smiles": "COc1ccc2[nH]c3c(c2c1)C1CCN(C1)C3C(=O)OCC(C)(C)C", "note": "(centres unmarked) [hydrochloride]", "values": [{"measurement": "IC50", "setting": "[1]; [3]", "result": 20.6, "unit": "µM"}]}
{"smiles": "COCCNC(=O)C1c2[nH]c3ccc(OC)cc3c2C2CCN1C2", "note": "(centres unmarked) [compound 49, 7-methoxy-N-(2-methoxyethyl)-3,4,5,10-tetrahydro-1H-2,5-methanoazepino[3,4-b]indole-1-carboxamide]", "values": [{"measurement": "IC50", "setting": "TNFα release, U937 cells; [5]", "result": "> 100", "unit": "µM"}]}
{"smiles": "COc1ccc2[nH]c3c(c2c1)C1CCN(C1)C3C(=O)N(C)C", "note": "(centres unmarked) [compound 46, 7-methoxy-N,N-dimethyl-3,4,5,10-tetrahydro-1H-2,5-methanoazepino[3,4-b]indole-1-carboxamide]", "values": [{"measurement": "IC50", "setting": "[1]; [3]", "result": "> 200", "unit": "µM"}, {"measurement": "IC50", "setting": "TNFα release, U937 cells; [5]", "result": "> 100", "unit": "µM"}]}
{"smiles": "COc1ccc2[nH]c3c(c2c1)C1CCN(C1)C3C(=O)OC12CC3CC(CC(C3)C1)C2", "note": "(centres unmarked) [compound 42]", "values": [{"measurement": "IC50", "setting": "TNFα release, U937 cells; [6]", "result": 42.4, "unit": "µM"}]}
{"smiles": "CNC(=O)C1c2[nH]c3ccc(OC)cc3c2C2CCN1C2", "note": "(centres unmarked) [compound 44, 7-methoxy-N-methyl-3,4,5,10-tetrahydro-1H-2,5-methanoazepino[3,4-b]indole-1-carboxamide]", "values": [{"measurement": "IC50", "setting": "TNFα release, U937 cells; [5]", "result": "> 100", "unit": "µM"}]}
{"smiles": "COCCOC(=O)C1c2[nH]c3ccc(OC)cc3c2C2CCN1C2", "note": "(centres unmarked) [trifluoroacetate]", "values": [{"measurement": "IC50", "setting": "[1]; [3]", "result": 6.49, "unit": "µM"}]}
{"smiles": "COCCOC(=O)C1c2[nH]c3ccc(OC)cc3c2C2CCN1C2", "note": "(centres unmarked)", "values": [{"measurement": "IC50", "setting": "[1]; [3]", "result": "4.72 µM and 4.96 µM"}, {"measurement": "IC50", "setting": "TNFα release, U937 cells; read-out: TNF Release Assay Avg. IC50, LPS 100 ng/ml, 4 hrs, differentiated U937 cells, listed as 15", "result": 3.58, "unit": "µM"}]}
{"smiles": "COc1ccc2[nH]c3c(c2c1)C1CCN(C1)C3C(=O)OC1CCCCC1", "note": "(centres unmarked) [hydrochloride]", "values": [{"measurement": "IC50", "setting": "TNFα release, U937 cells; read-out: TNF Release Assay Avg. IC50, LPS 100 ng/ml, 4 hrs, differentiated U937 cells, listed as 38, hydrochloride", "result": 59.1, "unit": "µM"}]}
{"smiles": "CSc1ccc2[nH]c3c(c2c1)C1CCN(C1)C3C(=O)O", "note": "(centres unmarked) [No. 4, 7-(methylthio)-3,4,5,10-tetrahydro-1H-2,5-methanoazepino[3,4-b]indole-1-carboxylic acid]", "values": [{"measurement": "IC50", "setting": "TNFα release, U937 cells; LPS 100 ng/ml, 4 hrs, differentiated U937 cells, read-out: TNF Release Assay Avg. IC50", "result": "> 100", "unit": "µM"}]}
{"smiles": "O=C(OCc1ccccc1)C1c2[nH]c3ccc(OCc4ccccc4)cc3c2C2CCN1C2", "note": "(centres unmarked) [compound 47, benzyl 7-(benzyloxy)-3,4,5,10-tetrahydro-1H-2,5-methanoazepino[3,4-b]indole-1-carboxylate trifluoroacetate]", "values": [{"measurement": "IC50", "setting": "[1]; [4]", "result": "> 200", "unit": "µM"}, {"measurement": "IC50", "setting": "TNFα release, U937 cells; [5]", "result": 76.7, "unit": "µM"}]}
{"smiles": "COc1ccc2[nH]c3c(c2c1)C1CCN(C1)C3C(=O)OCCO", "note": "(centres unmarked)", "values": [{"measurement": "IC50", "setting": "[1]; [3]", "result": 5.64, "unit": "µM"}, {"measurement": "IC50", "setting": "TNFα release, U937 cells; [6]", "result": "> 100", "unit": "µM"}]}
{"smiles": "CCCCCCOC(=O)C1c2[nH]c3ccc(OC)cc3c2C2CCN1C2", "note": "(centres unmarked) [trifluoroacetate]", "values": [{"measurement": "IC50", "setting": "[1]; [3]", "result": 29.7, "unit": "µM"}]}
{"smiles": "COc1ccc2[nH]c3c(c2c1)C1CCN(C1)C3C(N)=O", "note": "(centres unmarked) [compound 48, 7-methoxy-3,4,5,10-tetrahydro-1H-2,5-methanoazepino[3,4-b]indole-1-carboxamide]", "values": [{"measurement": "IC50", "setting": "[1]; [3]", "result": "> 200", "unit": "µM"}, {"measurement": "IC50", "setting": "TNFα release, U937 cells; [5]", "result": "> 100", "unit": "µM"}]}
{"smiles": "COc1ccc2[nH]c3c(c2c1)C1CCN(C1)C3C(=O)OC(C)(C)C", "note": "(centres unmarked) [compound 41, tert-butyl 7-methoxy-3,4,5,10-tetrahydro-1H-2,5-methanoazepino[3,4-b]indole-1-carboxylate]", "values": [{"measurement": "IC50", "setting": "[1]; [4]", "result": 112, "unit": "µM"}, {"measurement": "IC50", "setting": "TNFα release, U937 cells; [6]", "result": "> 100", "unit": "µM"}]}
